# Legend:
# [1] = system: phosphorylation of Chk1 (Ser 345) in HT29 colon adenocarcinoma cells; test: pCHK1 cellular assay; format: cell-based; settings: Homo sapiens, HT-29, hydroxyurea 3 mM, 4 h
# Source text: Chk1 kinase acts downstream of ATR and has a key role in DNA damage checkpoint control. Activation of Chk1 involves phosphorylation of Ser317 and Ser345 (regarded as the preferential target for phosphorylation/activation by ATR) and occurs in response to blocked DNA replication and certain forms of genotoxic stress. Phosphorylation at Ser 345 serves to localize Chk1 to the nucleus following checkpoint activation.
# This assay measures a decrease in phosphorylation of Chk1 (Ser 345) in HT29 colon adenocarcinoma cells following treatment with compound and hydroxyurea (which promotes fork stalling because of dNTP depletion) and using an immunocytochemical procedure and high content imaging.
# For the assay HT29 cells are plated in culture medium (DMEM high Glucose (no phenol red), 2 mM Glutamax, 1 mM Pyruvate, 10% FCS into Greiner 384 well plates, black, μclear #781090 (2500 cells/well/30 μl) and incubated for at least 20 hours at 37° C., 10% CO2 and 90% rH. Diluted test compounds (1 nM-30 μM final) and hydroxyurea (3 mM final) are added simultaneously and cells are incubated for 4 h at 37° C. After fixation/prmeabilisation with 100% MeOH (−20° C. cold) and permeabilisation with 0.2% Triton X-100 a complete immunocytochemical procedure is performed using a specific anti-pChk1 antibody (Cell Signaling, #2348BF) and fluorescently labelled secondary antibody (Alexa Fluor® 488 goat anti-rabbit F(ab′)2 fragment, Invitrogen A11070) and parallel nuclear staining for cell counting.
# The nuclear localised pChk1 signal is detected on an ImageXpress Ultra confocal high content reader and reported as % positive cells (nuclei).
# ATR/ATRIP = ATR/ATRIP (Homo sapiens (Human), UniProt Q13535); test: ATR/ATRIP kinase assay (TR-FRET, p53 Ser15 phosphorylation); format: biochemical; settings: 0.5 μM ATP, 50 nM p53
# ATR/ATRIP, sequence (Q13535 whole entry): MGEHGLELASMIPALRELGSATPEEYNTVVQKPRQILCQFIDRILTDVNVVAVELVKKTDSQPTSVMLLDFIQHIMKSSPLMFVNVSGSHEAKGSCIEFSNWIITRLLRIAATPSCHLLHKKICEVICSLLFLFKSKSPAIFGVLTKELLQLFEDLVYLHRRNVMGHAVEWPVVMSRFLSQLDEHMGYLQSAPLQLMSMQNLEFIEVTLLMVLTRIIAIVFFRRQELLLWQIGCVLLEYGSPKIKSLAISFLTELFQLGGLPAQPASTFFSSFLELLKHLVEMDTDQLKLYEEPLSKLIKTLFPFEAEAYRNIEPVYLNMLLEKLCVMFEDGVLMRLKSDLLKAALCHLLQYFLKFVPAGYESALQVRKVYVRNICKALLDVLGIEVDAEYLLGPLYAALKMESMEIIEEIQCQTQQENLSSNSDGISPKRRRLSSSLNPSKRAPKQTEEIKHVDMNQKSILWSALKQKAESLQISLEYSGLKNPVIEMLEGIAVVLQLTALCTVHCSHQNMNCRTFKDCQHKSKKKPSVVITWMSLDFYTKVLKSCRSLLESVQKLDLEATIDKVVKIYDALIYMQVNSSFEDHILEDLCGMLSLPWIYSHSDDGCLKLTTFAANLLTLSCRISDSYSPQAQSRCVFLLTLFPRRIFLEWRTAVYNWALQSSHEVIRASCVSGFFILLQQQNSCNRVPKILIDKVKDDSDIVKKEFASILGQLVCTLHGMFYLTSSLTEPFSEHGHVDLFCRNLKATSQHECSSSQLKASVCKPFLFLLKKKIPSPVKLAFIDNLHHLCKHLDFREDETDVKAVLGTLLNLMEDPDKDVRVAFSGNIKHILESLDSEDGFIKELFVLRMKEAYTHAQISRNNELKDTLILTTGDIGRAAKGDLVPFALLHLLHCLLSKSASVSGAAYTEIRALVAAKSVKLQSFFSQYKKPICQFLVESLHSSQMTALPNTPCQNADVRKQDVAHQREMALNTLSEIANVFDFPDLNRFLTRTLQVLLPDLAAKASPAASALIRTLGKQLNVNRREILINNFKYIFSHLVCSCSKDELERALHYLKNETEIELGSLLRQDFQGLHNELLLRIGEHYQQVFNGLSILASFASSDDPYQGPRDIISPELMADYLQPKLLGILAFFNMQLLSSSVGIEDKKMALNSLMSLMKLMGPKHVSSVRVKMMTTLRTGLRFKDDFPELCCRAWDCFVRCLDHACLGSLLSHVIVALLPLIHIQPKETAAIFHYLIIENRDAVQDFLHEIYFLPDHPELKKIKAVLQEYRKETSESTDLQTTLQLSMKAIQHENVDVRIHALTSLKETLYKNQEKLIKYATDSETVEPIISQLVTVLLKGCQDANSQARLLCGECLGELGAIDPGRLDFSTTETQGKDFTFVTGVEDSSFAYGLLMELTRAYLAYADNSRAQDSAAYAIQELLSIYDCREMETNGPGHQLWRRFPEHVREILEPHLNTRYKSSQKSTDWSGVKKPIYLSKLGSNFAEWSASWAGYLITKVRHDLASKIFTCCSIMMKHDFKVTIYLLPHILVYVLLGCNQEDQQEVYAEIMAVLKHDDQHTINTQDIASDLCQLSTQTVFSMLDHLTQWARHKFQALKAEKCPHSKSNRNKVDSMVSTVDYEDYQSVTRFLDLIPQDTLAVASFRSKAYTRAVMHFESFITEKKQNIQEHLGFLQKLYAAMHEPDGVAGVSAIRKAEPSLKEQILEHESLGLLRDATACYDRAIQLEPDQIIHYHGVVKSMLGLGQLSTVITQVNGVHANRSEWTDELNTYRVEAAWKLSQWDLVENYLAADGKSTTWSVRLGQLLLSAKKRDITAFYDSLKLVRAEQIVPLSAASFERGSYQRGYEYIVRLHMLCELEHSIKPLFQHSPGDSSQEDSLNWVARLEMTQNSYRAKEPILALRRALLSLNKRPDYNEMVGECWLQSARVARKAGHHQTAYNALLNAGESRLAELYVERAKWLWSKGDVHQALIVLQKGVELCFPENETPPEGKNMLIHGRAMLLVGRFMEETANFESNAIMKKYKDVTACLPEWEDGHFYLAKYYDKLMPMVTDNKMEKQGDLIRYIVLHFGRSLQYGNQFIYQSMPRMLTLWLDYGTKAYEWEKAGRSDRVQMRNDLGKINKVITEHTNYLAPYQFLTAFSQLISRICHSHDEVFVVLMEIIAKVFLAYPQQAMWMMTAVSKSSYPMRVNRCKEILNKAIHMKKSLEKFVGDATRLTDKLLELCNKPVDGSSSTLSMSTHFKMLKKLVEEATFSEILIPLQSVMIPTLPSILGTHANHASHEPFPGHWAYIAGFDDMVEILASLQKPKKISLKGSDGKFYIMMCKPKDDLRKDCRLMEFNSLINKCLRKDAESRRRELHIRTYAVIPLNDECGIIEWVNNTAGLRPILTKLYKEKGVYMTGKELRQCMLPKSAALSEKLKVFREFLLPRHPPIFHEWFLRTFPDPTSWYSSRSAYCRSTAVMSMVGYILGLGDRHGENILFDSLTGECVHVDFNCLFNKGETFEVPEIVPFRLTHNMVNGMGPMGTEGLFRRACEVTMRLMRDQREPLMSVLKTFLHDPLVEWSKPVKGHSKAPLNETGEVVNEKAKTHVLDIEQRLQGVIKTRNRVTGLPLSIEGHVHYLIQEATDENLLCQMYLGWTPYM
# ATR/ATRIP, sequence (Q8WXE1 whole entry partner): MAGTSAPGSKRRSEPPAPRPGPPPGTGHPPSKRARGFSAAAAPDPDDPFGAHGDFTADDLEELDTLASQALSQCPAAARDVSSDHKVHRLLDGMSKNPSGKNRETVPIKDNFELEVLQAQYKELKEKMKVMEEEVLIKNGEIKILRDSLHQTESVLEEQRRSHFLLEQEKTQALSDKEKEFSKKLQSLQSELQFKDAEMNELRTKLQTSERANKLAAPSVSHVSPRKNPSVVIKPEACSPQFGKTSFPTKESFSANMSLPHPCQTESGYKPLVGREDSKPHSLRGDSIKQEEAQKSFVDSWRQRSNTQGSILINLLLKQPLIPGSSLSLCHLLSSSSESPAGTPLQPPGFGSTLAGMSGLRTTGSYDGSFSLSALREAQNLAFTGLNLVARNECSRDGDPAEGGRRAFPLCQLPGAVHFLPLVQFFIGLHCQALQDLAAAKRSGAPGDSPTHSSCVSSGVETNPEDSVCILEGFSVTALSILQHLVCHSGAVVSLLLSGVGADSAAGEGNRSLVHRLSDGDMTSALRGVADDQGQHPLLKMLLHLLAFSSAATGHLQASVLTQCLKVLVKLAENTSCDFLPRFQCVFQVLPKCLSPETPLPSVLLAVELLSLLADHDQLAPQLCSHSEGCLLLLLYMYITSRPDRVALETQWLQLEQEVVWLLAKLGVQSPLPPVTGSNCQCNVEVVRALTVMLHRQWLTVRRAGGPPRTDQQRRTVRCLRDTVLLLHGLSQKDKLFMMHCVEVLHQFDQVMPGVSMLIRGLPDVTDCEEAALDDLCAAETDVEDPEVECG
# Procedure: ATR/ATRIP Kinase Assay—Measurement of ATR/ATRIP Inhibition
# The IC50 value was determined by an ATR/ATRIP enzymatic assay. The assay comprises two steps: the enzymatic reaction and the detection step. First, a mixture of ATR/ATRIP protein (Ataxia Telangiectasia and Rad3-related protein/ATR interacting protein), the compound in question at different concentrations, p53 as substrate protein and adenosine triphosphate (ATP) are incubated in assay buffer. ATR phosporylates p53 at Ser15 and other residues. The amount of phosphorylated p53 is then detected using specific antibodies and the TR-FRET assay technology.
# In detail: The ATR/ATRIP enzymatic assay is performed as a TR-FRET-(HTRF™, Cisbio Bioassays) based 384-well assay. In a first step, purified human recombinant ATR/ATRIP (human ATR, full length, GenBank ID: NM_001184.3, and human ATRIP, full length, GenBank ID AF451323.1, co-expressed in a mammalian cell line) is incubated in assay buffer for 15 minutes at 22° C. with test compound at different concentrations or without test compound (as a negative control). The assay buffer contains 25 mM HEPES pH 8.0, 10 mM Mg(CH3COO)2, 1 mM MnCl2, 0.1% BSA, 0.01% Brij® 35, and 5 mM dithiothreitol (DTT). An Echo 555 (Labcyte) is used for dispensing of compound solutions. Then, in a second step, purified human recombinant cmyc-tagged p53 (human p53, full length, GenBank ID: BC003596, expressed in Sf21 insect cells) and ATP are added and the reaction mixture is incubated for 25-35 minutes, typically 25 minutes, at 22° C. The pharmacologically relevant assay volume is 5 μl. The final concentrations in the assay during incubation of the reaction mixture are 0.3-0.5 nM, typically 0.3 nM, ATR/ATRIP, 50 nM p53, and 0.5 μM ATP. The enzymatic reaction is stopped by the addition of EDTA. The generation of phosphorylated p53 as a result of the ATR mediated reaction in the presence of ATP is detected by using specific antibodies [labeled with the fluorophores europium (Eu) as donor and d2 as acceptor (Cisbio Bioassays)] enabling FRET. For this purpose, 2 μl of antibody-containing stop solution (12.5 mM HEPES pH 8.0, 125 mM EDTA, 30 mM sodium chloride, 300 mM potassium fluoride, 0.006% Tween-20, 0.005% Brij® 35, 0.21 nM anti-phospho-p53(Ser15)-Eu antibody, 15 nM anti-cmyc-d2 antibody) are added to the reaction mixture. Following signal development for 2 h the plates are analyzed in an EnVision (PerkinElmer) microplate reader using the TRF mode with laser excitation. Upon excitation of the donor europium at 340 nm the emitted fluorescence light of the acceptor d2 at 665 nm as well as from the donor Eu at 615 nm are measured. The amount of phosphorylated p53 is directly proportional to the ratio of the amounts of emitted light i.e. the ratio of the relative fluorescence units (rfu) at 665 nm and 615 nm. Data are processed employing the Genedata Screener software. In particular, IC50 values are determined in the usual manner by fitting a dose-response curve to the data points using nonlinear regression analysis. • IC50=half maximal inhibitory concentration • ATP=Adenosine triphosphate • TR-FRET=Time-Resolved Fluorescence Resonance Energy Transfer • HTRF®=Homogeneous Time Resolved Fluorescence • HEPES=2-(4-(2-Hydroxyethyl)-1-piperazinyl)-ethanesulfonic acid • Mg(CH3COO)2=Magnesium acetate • MnCl2=Manganese(II)-chloride • BSA=Bovine Serum Albumin • EDTA=Ethylendiamine Tetraacetate • TRF=Time Resolved Fluorescence pCHK1 Cellular Assay
IC50 [1],IC50 (ATR/ATRIP),Compound
10 to 100 nM,0.9 nM,"Cc1ccc(-c2cc(N3CCOC[C@H]3C)nc3c(-c4cc(C)n[nH]4)n[nH]c23)cn1 [Compound 3, (3R)-3-Methyl-4-[3-(3-methyl-1H-pyrazol-5-yl)-7-(6-methylpyridin-3-yl)-1H-pyrazolo[4,3-b]pyridin-5-yl]morpholine]"
100 to 1000 nM,8.9 nM,"C[C@@H]1COCCN1c1cc(-c2ccc(S(C)(=N)=O)cc2)c2c(n1)c(-c1cc[nH]n1)nn2C (stereo partly drawn) [Compound 6, Imino(methyl)(4-{1-methyl-5-[(3R)-3-methylmorpholin-4-yl]-3-(1H-pyrazol-3-yl)-1H-pyrazolo[4,3-b]pyridin-7-yl}phenyl)-lambda6-sulfanone]"
10 to 100 nM,4.1 nM,"Cc1nc([S@+](C)[O-])ccc1-c1cc(N2CCOC[C@H]2C)nc2c(-c3cc[nH]n3)nn(C)c12 [Compound 9, (3R)-4-(7-{6-[(S)-Methanesulfinyl]-2-methylpyridin-3-yl}-1-methyl-3-(1H-pyrazol-3-yl)-1H-pyrazolo[4,3-b]pyridin-5-yl)-3-methylmorpholine]"
10 to 100 nM,1.9 nM,"Cc1nc([S@@+](C)[O-])ccc1-c1cc(N2CCOC[C@H]2C)nc2c(-c3cc[nH]n3)nn(C)c12 [Compound 10, (3R)-4-(7-{6-[(R)-Methanesulfinyl]-2-methylpyridin-3-yl}-1-methyl-3-(1H-pyrazol-3-yl)-1H-pyrazolo[4,3-b]pyridin-5-yl)-3-methylmorpholine]"
100 to 1000 nM,0.8 nM,"Cc1nc(S(C)(=O)=O)ccc1-c1cc(N2CCOC[C@H]2C)nc2c(-c3cc[nH]n3)n[nH]c12 [Compound 12, 7-(6-Methanesulfonyl-2-methyl-pyridin-3-yl)-5-((R)-3-methyl-morpholin-4-yl)-3-(1H-pyrazol-3-yl)-1H-pyrazolo[4,3-b]pyridine]"
100 to 1000 nM,1.4 nM,"Cc1cc(-c2n[nH]c3c(-c4ccc(S(C)(=O)=O)nc4C)cc(N4CCOC[C@H]4C)nc23)[nH]n1 [Compound 13, (3R)-4-[7-(6-Methanesulfonyl-2-methylpyridin-3-yl)-3-(3-methyl-1H-pyrazol-5-yl)-1H-pyrazolo[4,3-b]pyridin-5-yl]-3-methylmorpholine]"
1000 to 10000 nM,99 nM,"Cc1ccc(-c2cc(N3CCOC[C@H]3C)nc3c(-c4cc[nH]n4)n(C)nc23)cn1 [Compound 14, 2-Methyl-5-((R)-3-methyl-morpholin-4-yl)-7-(6-methyl-pyridin-3-yl)-3-(1H-pyrazol-3-yl)-2H-pyrazolo[4,3-b]pyridine]"
1000 to 10000 nM,67 nM,"C[C@@H]1COCCN1c1cc(-c2ccnc3[nH]ccc23)c2nn(C)c(-c3cc[nH]n3)c2n1 [Compound 16, 2-Methyl-5-((R)-3-methyl-morpholin-4-yl)-3-(1H-pyrazol-3-yl)-7-(1H-pyrrolo[2,3-b]pyridin-4-yl)-2H-pyrazolo[4,3-b]pyridine]"
,510 nM,"Cc1cc(S(C)(=O)=O)ncc1-c1cc(N2CCOC[C@H]2C)nc2c(-c3cc[nH]n3)n(C)nc12 [Compound 21, 7-(6-Methanesulfonyl-4-methyl-pyridin-3-yl)-2-methyl-5-((R)-3-methyl-morpholin-4-yl)-3-(1H-pyrazol-3-yl)-2H-pyrazolo[4,3-b]pyridine]"
100 to 1000 nM,3.3 nM,"Cc1ccnc(C)c1-c1cc(N2CCOC[C@H]2C)nc2c(-c3cc[nH]n3)nn(C)c12 [Compound 22, 7-(2,4-Dimethyl-pyridin-3-yl)-1-methyl-5-((R)-3-methyl-morpholin-4-yl)-3-(1H-pyrazol-3-yl)-1H-pyrazolo[4,3-b]pyridine]"
10 to 100 nM,1 nM,"Cc1cnccc1-c1cc(N2CCOC[C@H]2C)nc2c(-c3cc[nH]n3)nn(C)c12 [Compound 23, 1-Methyl-5-((R)-3-methyl-morpholin-4-yl)-7-(3-methyl-pyridin-4-yl)-3-(1H-pyrazol-3-yl)-1H-pyrazolo[4,3-b]pyridine]"
100 to 1000 nM,28 nM,"C[C@@H]1COCCN1c1cc(CO)c2c(n1)c(-c1cc[nH]n1)nn2C [Compound 24, [1-Methyl-5-((R)-3-methyl-morpholin-4-yl)-3-(1H-pyrazol-3-yl)-1H-pyrazolo[4,3-b]pyridin-7-yl]-methanol]"
100 to 1000 nM,10 nM,"C[C@@H]1COCCN1c1cc(C(=O)N(C)C)c2[nH]nc(-c3cc[nH]n3)c2n1 [Compound 27, 5-((R)-3-Methyl-morpholin-4-yl)-3-(1H-pyrazol-3-yl)-1H-pyrazolo[4,3-b]pyridine-7-carboxylic acid dimethylamide]"
100 to 1000 nM,5.3 nM,"CNC(=O)c1cc(N2CCOC[C@H]2C)nc2c(-c3cc[nH]n3)n[nH]c12 [Compound 28, 5-((R)-3-Methyl-morpholin-4-yl)-3-(1H-pyrazol-3-yl)-1H-pyrazolo[4,3-b]pyridine-7-carboxylic acid methylamide]"
1000 to 10000 nM,5.4 nM,"C[C@@H]1COCCN1c1cc(C(N)=O)c2[nH]nc(-c3cc[nH]n3)c2n1 [Compound 29, 5-((R)-3-Methyl-morpholin-4-yl)-3-(1H-pyrazol-3-yl)-1H-pyrazolo[4,3-b]pyridine-7-carboxylic acid amide]"
100 to 1000 nM,15 nM,"C[C@@H]1COCCN1c1cc(C(=O)N(C)C)c2c(n1)c(-c1cc[nH]n1)nn2C [Compound 30, 1-Methyl-5-((R)-3-methyl-morpholin-4-yl)-3-(1H-pyrazol-3-yl)-1H-pyrazolo[4,3-b]pyridine-7-carboxylic acid dimethylamide]"
100 to 1000 nM,33 nM,"CNC(=O)c1cc(N2CCOC[C@H]2C)nc2c(-c3cc[nH]n3)nn(C)c12 [Compound 31, 1-Methyl-5-((R)-3-methyl-morpholin-4-yl)-3-(1H-pyrazol-3-yl)-1H-pyrazolo[4,3-b]pyridine-7-carboxylic acid methylamide]"
,1800 nM,"C[C@@H]1COCCN1c1cc(O)c2c(n1)c(-c1ccn[nH]1)nn2C [Compound 45, 1-Methyl-5-((R)-3-methyl-morpholin-4-yl)-3-(2H-pyrazol-3-yl)-1H-pyrazolo[4,3-b]pyridin-7-ol]"
,17 nM,"Cc1nc(S(C)(=O)=O)ccc1-c1cc(N2CCOC[C@H]2C)nc2c(-c3cc(C(F)(F)F)n[nH]3)nn(C)c12 [Compound 74, (3R)-4-[7-(6-Methanesulfonyl-2-methylpyridin-3-yl)-1-methyl-3-[3-(trifluoromethyl)-1H-pyrazol-5-yl]-1H-pyrazolo[4,3-b]pyridin-5-yl]-3-methyl-morpholine]"
